Source: PubChem BioAssay (NCI)
Several values for one entry are separate records, joined by “and”; a condition that tells them apart may be missing. Equal values may be shown once.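 1) Cells in 96-well plates. 2) Compound, 48 h, 5 concentrations. 3) Linear interpolation between surrounding doses. 4) Unreached endpoint = highest concentration. GI50 is the concentration that inhibits growth by half. The concentration for full growth arrest is given as TGI.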

Experiments:
Assay in all cases: NCI-60 cell line screen, 48 h
[1] = tested on: SN12C renal
[2] = tested on: NCI-H226 lung
[3] = tested on: EKVX NSCLC
[4] = tested on: SK-MEL-28 melanoma
[5] = tested on: HOP-62 NSCLC
[6] = tested on: MALME-3M melanoma
[7] = tested on: SK-OV-3 ovarian
[8] = tested on: SR leukemia

Structure (SMILES) | GI50 [1] [µM] | TGI [1] | GI50 [2] | TGI [2] | GI50 [3] [µM] | TGI [3] | GI50 [4] [µM] | TGI [4] | GI50 [5] [µM] | TGI [5] | GI50 [6] [µM] | TGI [6] | GI50 [7] [µM] | TGI [7] | TGI [8] [µM] | GI50 [8]
CN1CCN(CC(=O)N2c3cccc4cccc(c34)N(C(=O)CN3CCN(C)CC3)C2c2cn(-c3ccccc3)nc2-c2cccc([N+](=O)[O-])c2)CC1 | 1.99 | 4.28 µM | 1.83 µM | 4.8 µM | 2.84 | 11.5 µM | 1.81 | 3.36 µM | 2.02 | 5.52 µM | 1.85 | 3.49 µM | 2.11 | 4.6 µM |  | 
Cc1cc(N(CCOS(C)(=O)=O)CCOS(C)(=O)=O)ccc1C=Nc1ccc(-c2csc(-c3ccc(Br)cc3)n2)cc1 |  | > 79.7 µM |  | 62.3 µM |  | 37.7 µM |  | 99.6 µM |  | 26.4 µM |  | 67.2 µM |  | 15.6 µM | > 94.3 | 
COc1cnc2c(c1)C(=O)c1c-2n(CCCNC(C)C)c(=O)c2cc([N+](=O)[O-])ccc12 | 0.0393 | 0.438 µM | 0.0651 µM | 0.798 µM | 0.134 | 0.706 µM | 0.121 | 0.351 µM | 0.0853 | 0.34 µM | 0.118 | 0.356 µM | 0.0409 | 0.201 µM | 0.226 | 
Oc1c(I)cc(I)cc1CN(Cc1ccccn1)Cc1ccccn1 | 1.23 | 33.6 µM | 1.16 µM | 7.48 µM | 0.987 | 17.2 µM | 1.44 | 31.6 µM | 0.311 | 8.45 µM | 1.84 | 9.2 µM | 0.476 | 5.3 µM | 9.77 | 0.476 µM
COc1ccc2nc(-c3cc4c([nH]c5ccccc54)c(-c4ccc(F)c(F)c4)n3)[nH]c2c1 | 3.97 | 23.5 µM | 8.91 µM | 42.5 µM |  |  | 12.7 | 27 µM | 10.9 | 25.5 µM | 16.3 | 34.3 µM | 17.1 | 31.4 µM | 6.7 | 1.97 µM
C=C1C(=O)O[C@H]2[C@H]1CC/C(COC(=O)NCc1cc(OC)cc(OC)c1)=C\CC[C@@]1(C)O[C@@H]21 |  |  | 2.02 µM | 5.49 µM | 2.06 | 6.6 µM | 1.47 | 3.54 µM | 3.06 | 11.7 µM | 1.86 | 3.83 µM | 12.8 | 26.1 µM | 2.91 | 0.32 µM
c1ccc2c3c(ccc2c1)-c1c(ccc2c(NCCCCN4CCCCC4)cccc12)C3 | 1.62 | 3.05 µM |  |  | 10.7 | 28 µM | 1.88 | 4.06 µM | 1.57 | 2.91 µM |  |  | 10 | 35.3 µM | 5.4 | 1.37 µM
COc1ccc(C(c2cc3c(cc2O)OCO3)N2CCOCC2)cc1OC (stereo not given) |  | 22.3 µM |  | 24.6 µM |  | 36.7 µM |  | 32.9 µM |  | 29.1 µM |  | 25.7 µM |  | 28.7 µM |  | 
Cc1ccc2c(c1)C=CC(C#N)N2C(=O)Oc1ccccc1 (stereo not given) |  | > 100 µM |  | 99.9 µM |  | 43 µM |  | > 100 µM |  |  |  | > 100 µM |  |  | 46.8 | 
CC(C)c1ccc2nc3ccc(C(=O)NCCN4CCN(c5ccccc5)CC4)cn3c(=O)c2c1 |  |  |  | > 100 µM |  | > 100 µM |  | > 100 µM |  | > 100 µM |  |  |  | > 100 µM |  | 
O=S(=O)(Nc1ccccn1)c1ccc(N=Nc2ccc(O)c3ncccc23)cc1 | 1.02 | > 29.8 µM | 2.96 µM | 10.8 µM |  |  | 1.72 | 26 µM | 1.14 | 8.88 µM | 2.59 | 7.03 µM | 1.7 | 6.59 µM | 19.3 | 0.647 µM
COc1cc(N2CCC(N3CCN(C)CC3)CC2)ccc1Nc1ncc(Cl)c(Nc2ccccc2S(=O)(=O)C(C)C)n1 | 0.613 | 14.2 µM | 0.461 µM | 2.14 µM | 0.489 | 11.5 µM | 1.74 | 3.41 µM | 0.414 | 7.98 µM | 1.32 | 3.46 µM | 1.83 | 4.02 µM |  | 
C/C=C/C1=CN2C(=O)c3cc(OC4OC(C)C(NC)C(C)(O)C4O)c(C)c(O)c3N=C[C@@H]2C1 (stereo not given in full) |  | 1.21 µM | 0.124 µM |  |  |  |  |  |  |  |  |  |  | 12.4 µM |  | 0.0253 µM and < 0.01 µM
Nc1nc(-c2cccs2)cs1 |  | > 100 µM |  |  |  | > 100 µM |  | > 100 µM |  | > 100 µM |  | > 100 µM |  | > 100 µM | > 100 | 
CCCCCCNCCCNc1c2ccccc2nc2cccc([N+](=O)[O-])c12 |  | 0.12 µM | 0.0228 µM | 0.274 µM and 0.148 µM | 0.185 | 0.12 µM and 0.812 µM | 0.0534 | 0.323 µM and 0.375 µM |  | 0.0773 µM and 0.0374 µM | 0.0168 | 0.0628 µM and 0.0572 µM |  | 0.278 µM and 0.39 µM |  | 
COc1ccc(C2c3c(-c4ccccc4)nn(-c4ccccc4)c3Oc3ncn4nc(CC#N)nc4c32)cc1OC (stereo not given) |  | 44.5 µM and > 41.9 µM | 15.9 µM and 2.09 µM | 39 µM and 6.28 µM |  | > 76.3 µM |  | > 100 µM |  |  |  |  |  | > 100 µM and 17.9 µM | 33 | 
CC1=CC(=O)c2ccc(C)cc2C1=O |  | 36.6 µM |  | 39.5 µM |  | 23.9 µM |  | 22.7 µM |  | 32 µM |  |  |  | 30.5 µM |  | 
O=C(O)c1ccccc1Nc1ccc2nnc(-c3ccncc3)n2n1 | 3.56 | 17.1 µM |  |  |  |  | 12.7 | 29.6 µM | 15.4 | 33.5 µM | 7.97 | 26.3 µM | 22 | > 100 µM | > 100 | 5.23 µM
Cc1ccc(C2=NN(c3ccc(S(N)(=O)=O)cc3)C(c3cn(-c4ccccc4)nc3-c3ccccc3)C2)cc1 (stereo not given) | 2.23 | 5 µM | 30.7 µM | > 100 µM |  |  | 39.2 | > 100 µM | > 100 | > 100 µM | 81 | > 100 µM | > 100 | > 100 µM | > 100 | 5.92 µM
CC(=O)[O][Bi]([c]1ccccc1)[c]1ccccc1 | 10.9 | 23.6 µM | 18.6 µM | 37.5 µM | 19.4 | 34.5 µM |  |  | 17 | 33.8 µM |  |  | 16.6 | 30.5 µM |  | 
CSC1(CC(=O)N2CCCCC2)C(=O)Nc2ccccc21 (stereo not given) |  |  |  | > 100 µM |  | > 100 µM |  | > 100 µM |  | > 100 µM |  | > 100 µM |  | > 100 µM |  | 
C/C(=C\c1ccn(-c2ccc(N)cc2F)n1)[C@@H]1C[C@@H]2O[C@]2(C)CCC[C@H](C)[C@H](O)[C@@H](C)C(=O)C(C)(C)[C@@H](O)CC(=O)O1 | 0.0768 | > 50 µM | 5.45 µM | > 50 µM | 0.36 | > 50 µM | 1.05 | > 50 µM | 0.0384 | > 50 µM |  |  | 0.172 | > 50 µM | > 50 | 0.0236 µM
COc1cc(/C=C2\C[C@H]3[C@@H]4CC=C5C[C@@H](OC(C)=O)CC[C@]5(C)[C@H]4CC[C@]3(C)[C@H]2OC(C)=O)ccc1OCCN1CCCCC1 | 10.8 | 27.1 µM | > 50 µM | > 50 µM | > 50 | > 50 µM | 22.5 | > 50 µM | 8.96 | 27.1 µM |  |  |  |  |  | 
C[C@@H]1OCC2(CCN(c3cnc(Sc4ccnc(N)c4Cl)c(N)n3)CC2)[C@@H]1N | 27.7 | > 100 µM |  | > 100 µM | 0.573 | > 100 µM | > 100 | > 100 µM | 14.2 | > 100 µM | > 100 | > 100 µM | 1.04 | > 100 µM |  | 
Nc1ncnc2c1ncn2C1OC(COC2C(CO)OC(OC(C(=O)O)C(O)C(OP(=O)(O)O)C(O)C(=O)O)C(O)C2O)C(O)C1O (stereo not given) |  |  |  | > 100 µM |  | > 100 µM |  | > 100 µM |  | > 100 µM |  | > 100 µM |  | > 100 µM | > 100 | 
O=c1ccnc(SCc2ccc(Cl)cc2)[nH]1 |  | > 100 µM |  |  |  | > 100 µM |  | > 100 µM |  | > 100 µM |  | > 100 µM |  | > 100 µM | > 100 | 
Cc1ccc(NC(=O)c2cc3ccccc3cc2O)c(C)c1.Cc1ccc(NC(=O)c2cc3ccccc3cc2[O-])c(C)c1.[Ni+2] | 3.12 | 15.1 µM | 3.49 µM | 8.37 µM | 2.57 | 8.99 µM | 6.42 | 88.1 µM | 3.87 | 17 µM | 3.4 | 14.3 µM | 2.9 | 11.6 µM |  | 
Nc1c2ccccc2nc2ccccc12 (tested in a mixture with another compound) | 1.53 | 12.2 µM | 1.17 µM | 3.03 µM | 2.01 | 7.65 µM | 1.99 | 3.86 µM | 1.54 | 4.01 µM | 2.34 | 5.28 µM | 2.39 | 10.5 µM |  | 
